Laboratory results published in patent publication US20220330549A1, “USE OF N-BENZYLBENZAMIDE-BASED COMPOUND AS HERBICIDE” (Northwest A&F University, priority 2020, published 2022).

How the values were obtained:
Type in all cases: in vivo
Piemarker [1] = experiment: Herbicidal activity test for indoor pre-emergence soil treatment; set-up: key: level 1-9; higher = more weed remaining vs blank control; conditions: 150 g a.i./ha, visual inspection 21 days after treatment
Procedure, shortened: (§1)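 Compounds were formulated as 10% emulsifiable concentrates and sprayed onto the soil 24 h after sowing, at 150 g(a.i.)/ha. Soil was sandy loam (≤2% organic matter), with seeds under 0.5–2.0 cm cover, per NY/T 1155.3-2006. Visual 1–9 ratings relative to blank control were made after 21 days.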

green bristlegrass [2] = experiment: as above; set-up: key: level 1-9; higher = more weed remaining vs blank control; conditions: 150 g a.i./ha, visual inspection 21 days after treatment
Procedure, shortened: as §1

Barnyard grass [3] = experiment: as above; set-up: key: level 1-9; higher = more weed remaining vs blank control; conditions: 150 g a.i./ha, visual inspection 21 days after treatment
Procedure, shortened: as §1

Amaranthus retroflexus [4] = experiment: as above; set-up: key: 1-9 levels; higher = more weed remaining vs blank control; conditions: 150 g a.i./ha, visual inspection 21 days after treatment
Procedure, shortened: as §1

Digitaria sanguinalis [5] = experiment: as above; set-up: key: 1-9 levels; higher = more weed remaining vs blank control; conditions: 150 g a.i./ha, visual inspection 21 days after treatment
Procedure, shortened: as §1

Acalypha australis = experiment: Field test for weed control in a corn field; conditions: 150 g a.i./ha, after treatment
Procedure, shortened: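 Post-emergence field trial in a corn field following GB/T 17980.42-2000. Test compounds were formulated as 10% emulsifiable concentrates, diluted in water, and sprayed at 150 g(a.i.)/ha when corn had 2 to 5 leaves, with 4 replicates on 20 m^2 plots. Mesotrione 25% oil dispersion served as the control agent. Weed control was scored on a 1-9 scale.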

nutgrass flatsedge = experiment: Field test for weed control in a corn field; conditions: 150 g a.i./ha, after treatment
Procedure, shortened: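 A corn field efficacy trial following GB/T 17980.42-2000 assessed post-emergence control of nutgrass flatsedge. Test compounds were formulated as 10% emulsifiable concentrates, diluted in water, and sprayed at 150 g(a.i.)/ha when the corn had 2 to 5 leaves. Each treatment had 4 replicates on 20 m^2 plots. Herbicidal activity was graded on a 1-9 scale by damage symptoms and severity.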

Chenopodium album = experiment: Field test for weed control in a corn field; conditions: 150 g a.i./ha, after treatment
Procedure, shortened: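 A corn-field efficacy trial following GB/T 17980.42-2000 tested post-emergence control of Chenopodium album. Test compounds formulated as 10% emulsifiable concentrates were diluted in water and sprayed at 150 g(a.i.)/ha when the corn had 2 leaves to 5 leaves, on 20 m^2 plots with 4 replicates. Herbicidal activity was rated on a 1-9 scale by damage symptoms and severity.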

Convolvulus arvensis = experiment: Field test for weed control in a corn field; conditions: 150 g a.i./ha, after treatment
Procedure, shortened: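 Field trial of weed control against Convolvulus arvensis in corn, run following GB/T 17980.42-2000. Test agents were formulated as 10% emulsifiable concentrates and sprayed in water at 150 g(a.i.)/ha when corn plants had 2 to 5 leaves. Each treatment was replicated 4 times on 20 m^2 plots, and 25% mesotrione oil dispersion served as the control agent.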

goosegrass = experiment: Field test for weed control in a corn field; conditions: 150 g a.i./ha, after treatment
Procedure, shortened: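 Weed control efficacy against goosegrass was tested in a corn field following GB/T 17980.42-2000. Compounds formulated as 10% emulsifiable concentrates were diluted in water and sprayed post-emergence at 150 g(a.i.)/ha when corn had 2 to 5 leaves, with 4 replicates of 20 m^2 plots. Herbicidal activity was rated on a 1-9 scale by damage symptoms and severity.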

Portulaca oleracea = experiment: Field test for weed control in a corn field; conditions: 150 g a.i./ha, after treatment
Procedure, shortened: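 Field efficacy trial in corn following GB/T 17980.42-2000. Test compounds were prepared as 10% emulsifiable concentrates, diluted in water, and sprayed at 150 g(a.i.)/ha when corn had 2 to 5 leaves after sowing. Plots were 20 m^2 with 4 replicates per treatment. Herbicidal activity was scored on a 1-9 scale from weed damage symptoms and severity.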

green bristlegrass [6] = experiment: Field test for weed control in a corn field; conditions: 150 g a.i./ha, after treatment
Procedure, shortened: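 Post-emergence weed control was tested in a corn field following GB/T 17980.42-2000. When the corn had 2 leaves to 5 leaves after sowing, 10% emulsifiable concentrates diluted in water were sprayed at 150 g(a.i.)/ha on 20 m^2 plots, four replicates per treatment. Effects on green bristlegrass were scored on a 1-9 damage scale relative to the blank control area.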

Solanum nigrum = experiment: Field test for weed control in a corn field; conditions: 150 g a.i./ha, 30 days after treatment
Procedure, shortened: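 Post-emergence weed control was tested in a corn field following GB/T 17980.42-2000. Compounds were made into 10% emulsifiable concentrates, diluted in water and sprayed at 150 g(a.i.)/ha when corn had 2 to 5 leaves after sowing, in 20 m^2 plots with 4 replicates. Effects on Solanum nigrum were graded on a 1-9 scale relative to the blank control area.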

Barnyard grass [7] = experiment: Field test for weed control in a corn field; conditions: 150 g a.i./ha, 30 days after treatment
Procedure, shortened: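 Corn-field efficacy trial following GB/T 17980.42-2000. Test compounds were formulated as 10% emulsifiable concentrates, diluted in water and sprayed post-emergence at 150 g(a.i.)/ha when corn had 2 to 5 leaves. Each treatment was replicated 4 times on 20 m^2 plots. Barnyard grass control was rated on a 1-9 damage scale.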

Amaranthus retroflexus [8] = experiment: Field test for weed control in a corn field; conditions: 150 g a.i./ha, 30 days after treatment
Procedure, shortened: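 Field efficacy trial in a corn field following GB/T 17980.42-2000. Test compounds were formulated as 10% emulsifiable concentrates, diluted in water and sprayed post-emergence when corn had 2 to 5 leaves. Each treatment covered 20 m^2 with 4 replicates. A 25% mesotrione oil dispersion served as control. Damage to Amaranthus retroflexus was rated on a 1-9 scale against untreated blank plots.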

Digitaria sanguinalis [9] = experiment: Field test for weed control in a corn field; conditions: 150 g a.i./ha, after treatment
Procedure, shortened: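 Field trial in a corn field following GB/T 17980.42-2000. Test compounds were formulated as 10% emulsifiable concentrates, diluted in water and sprayed post-emergence at 150 g(a.i.)/ha when corn had 2 to 5 leaves, with 4 replicates on 20 m^2 plots. Control of Digitaria sanguinalis was scored on a 1-9 scale based on weed damage relative to the untreated blank area.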

Humulus scandens [10] = experiment: Herbicidal activity test for indoor pre-emergence soil treatment; conditions: 150 g a.i./ha, visual inspection 21 days after treatment
Procedure, shortened: as §1

Broadleaf weed = experiment: Post-emergence herbicidal activity test in a paddy field; set-up: key: level scale; higher level = more weed left vs blank control; conditions: 150 g a.i./ha (penoxsulam control 250 g(a.i.)/h)
Procedure, shortened: (§2)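 Efficacy was visually estimated 15 and 30 days after spraying, grading weed coverage relative to an untreated neighbouring plot (level 2 = 0 to 2.5%, level 9 = 67.6 to 100%). Treatments were 150 g(a.i.)/ha from 10% emulsifiable concentrates applied at the 4-5 leaf rice stage, four repeats of 50 m^2 each.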

Gramineae = experiment: as above; set-up: key: level scale; higher level = more weed left vs blank control; conditions: 150 g a.i./ha (penoxsulam control 250 g(a.i.)/h)
Procedure, shortened: as §2

Cyperaceae = experiment: as above; set-up: key: level scale; higher level = more weed left vs blank control; conditions: 150 g a.i./ha (penoxsulam control 250 g(a.i.)/h)
Procedure, shortened: as §2

Piemarker [11] = experiment: Herbicidal activity test for indoor post-emergence spraying on stems and leaves; set-up: key: grade level by weed remaining vs blank control, e.g. 5 = 10.1-15%; conditions: 150 g a.i./ha, visual inspection 21 days after treatment
Procedure, shortened: (§3)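 Visual inspection at 21 days after treatment gave a level rating, each level defined as a percentage band of the weed remaining in the blank control area. Plants were sprayed on stems and leaves after emergence, following NY/T 1155.4-2006.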

green bristlegrass [12] = experiment: as above; set-up: key: grade level by weed remaining vs blank control, e.g. 5 = 10.1-15%; conditions: 150 g a.i./ha, visual inspection 21 days after treatment
Procedure, shortened: as §3

Barnyard grass [13] = experiment: as above; set-up: key: grade level by weed remaining vs blank control, e.g. 5 = 10.1-15%; conditions: 150 g a.i./ha, visual inspection 21 days after treatment
Procedure, shortened: as §3

Humulus scandens [14] = experiment: as above; set-up: key: grade level by weed remaining vs blank control, e.g. 5 = 10.1-15%; conditions: 150 g a.i./ha, visual inspection 21 days after treatment
Procedure, shortened: as §3

Amaranthus retroflexus [15] = experiment: as above; set-up: key: grade level by weed remaining vs blank control, e.g. 5 = 10.1-15%; conditions: 150 g a.i./ha, visual inspection 21 days after treatment
Procedure, shortened: as §3

Digitaria sanguinalis [16] = experiment: as above; set-up: key: grade level by weed remaining vs blank control, e.g. 5 = 10.1-15%; conditions: 150 g a.i./ha, visual inspection 21 days after treatment
Procedure, shortened: as §3

Row | Structure (SMILES) | Herbicidal Activity Piemarker (Piemarker [1]) | Herbicidal Activity Green bristlegrass (green bristlegrass [2]) | Herbicidal Activity Barnyard grass (Barnyard grass [3]) | Herbicidal Activity Amaranthus retroflexus (Amaranthus retroflexus [4]) | Herbicidal Activity Digitaria sanguinalis (Digitaria sanguinalis [5]) | Post-emergence weed control effect, Acalypha australis (Acalypha australis) | Post-emergence weed control effect, Nutgrass flatsedge (nutgrass flatsedge) | Post-emergence weed control effect, Chenopodium album (Chenopodium album) | Post-emergence weed control effect, Convolvulus arvensis (Convolvulus arvensis) | Post-emergence weed control effect, Goose grass (goosegrass) | Post-emergence weed control effect, Portulaca oleracea (Portulaca oleracea) | Post-emergence weed control effect, Green bristlegrass (green bristlegrass [6]) | Post-emergence weed control effect, Solanum nigrum (Solanum nigrum) | Post-emergence weed control effect, Barnyard grass (Barnyard grass [7]) | Post-emergence weed control effect, Amaranthus retroflexus (Amaranthus retroflexus [8]) | Post-emergence weed control effect, Digitaria sanguinalis (Digitaria sanguinalis [9]) | Herbicidal Activity Humulus scandens (Humulus scandens [10]) | Herbicidal activity 15 days after treatment Broadleaf weed (Broadleaf weed) | Herbicidal activity 30 days after treatment Broadleaf weed (Broadleaf weed) | Herbicidal activity 15 days after treatment Gramineae (Gramineae) | further results
1 | COc1ccc(OC)c(C(=O)NCc2cc(Cl)cc(Cl)c2)c1 [Compound A29] | 1 | 1 | 1 | 1 | 2 (equivalent to 0 to 2.5% of the weed in the blank control area) | 1 | 2 (equivalent to 0 to 2.5% of the weed in the blank control area) | 1 | 2 (equivalent to 0 to 2.5% of the weed in the blank control area) | 2 (equivalent to 0 to 2.5% of the weed in the blank control area) | 1 | 2 (equivalent to 0 to 2.5% of the weed in the blank control area) | 2 (equivalent to 0 to 2.5% of the weed in the blank control area) | 1 | 1 | 2 (equivalent to 0 to 2.5% of the weed in the blank control area) | 2 (equivalent to 0 to 2.5% of the weed in the blank control area) | 1 | 1 | 2 (equivalent to 0 to 2.5% of the weed in the blank control area) | Herbicidal activity 30 days after treatment Gramineae (Gramineae): 1; Herbicidal activity 15 days after treatment Cyperaceae (Cyperaceae): 1; Herbicidal activity 30 days after treatment Cyperaceae (Cyperaceae): 2 (equivalent to 0 to 2.5% of the weed in the blank control area); Herbicidal Activity Piemarker (Piemarker [11]): 1; Herbicidal Activity Green bristlegrass (green bristlegrass [12]): 1; Herbicidal Activity Barnyard grass (Barnyard grass [13]): 1; Herbicidal Activity Humulus scandens (Humulus scandens [14]): 1; Herbicidal Activity Amaranthus retroflexus (Amaranthus retroflexus [15]): 1; Herbicidal Activity Digitaria sanguinalis (Digitaria sanguinalis [16]): 1
2 | COc1ccc(OC)c(C(=O)NCc2cccc(C)c2)c1 [Compound A35] | 1 | 1 | 1 | 1 | 2 (equivalent to 0 to 2.5% of the weed in the blank control area) | 2 (equivalent to 0 to 2.5% of the weed in the blank control area) | 2 (equivalent to 0 to 2.5% of the weed in the blank control area) | 1 | 2 (equivalent to 0 to 2.5% of the weed in the blank control area) | 2 (equivalent to 0 to 2.5% of the weed in the blank control area) | 1 | 2 (equivalent to 0 to 2.5% of the weed in the blank control area) | 2 (equivalent to 0 to 2.5% of the weed in the blank control area) | 1 | 1 | 2 (equivalent to 0 to 2.5% of the weed in the blank control area) | 2 (equivalent to 0 to 2.5% of the weed in the blank control area) | 1 | 2 (equivalent to 0 to 2.5% of the weed in the blank control area) | 2 (equivalent to 0 to 2.5% of the weed in the blank control area) | Herbicidal activity 30 days after treatment Gramineae (Gramineae): 1; Herbicidal activity 15 days after treatment Cyperaceae (Cyperaceae): 1; Herbicidal activity 30 days after treatment Cyperaceae (Cyperaceae): 2 (equivalent to 0 to 2.5% of the weed in the blank control area); Herbicidal Activity Piemarker (Piemarker [11]): 1; Herbicidal Activity Green bristlegrass (green bristlegrass [12]): 1; Herbicidal Activity Barnyard grass (Barnyard grass [13]): 1; Herbicidal Activity Humulus scandens (Humulus scandens [14]): 1; Herbicidal Activity Amaranthus retroflexus (Amaranthus retroflexus [15]): 1; Herbicidal Activity Digitaria sanguinalis (Digitaria sanguinalis [16]): 1
